Where two headings read alike, the source gives them in different places.
How the values were obtained:
Lipoxygenase-5 (LOX-5) = Lipoxygenase-5 (LOX-5) (Homo sapiens, UniProt P09917); experiment: LOX-5 activity assay in cell lysate
Experimental: (§9) Cyclooxygenase-2 (COX-2) activity was measured as reported by Kulmaczand Lands ([33]). The reaction cocktail consists of Tris-HCl buffer (100 mM and pH 8.0), EDTA (3 μM), hematin (15 μM), and cell lysate. After incubation, arachidonic acid (AA) and N,N,N′,N′-tetra methyl-p-phenylenediamine (TMPD) was added to 96 well plates to initiate the reaction. The reaction mixture was immediately auto mixed using the Multiscan Go of Thermo Scientific spectrophotometer, and absorbance was measured at 590 nm ([33]). The enzyme inhibition was calculated concerning control. […] Approximately 40 μM of AA was mixed to initiate the reaction, and the plate was kept for 4 min at room temperature. The reaction was terminated by adding an equal ratio of reagent 1 (4.5 mM FeSo4 in HCl) and reagent 2 (3% NH4SCN). The absorbance was taken at 480 nm using a spectrophotometer ([34]). The enzyme inhibition was compared concerning control.

FaDu cells [1] = experiment: Cell cycle analysis (PI, flow cytometer); assay type: cell-based, human; details: PI staining
Experimental: (§1) The cell cycle analysis was carried out by the protocol reported by Fatima et al. ([40]). The cell lines were fixed with 70% ethanol. Before analysis, fixed cells were washed at least two times with PBS and PI solution containing RNase A to stain the cells. The samples were run on a flow cytometer within 1 h. Treated FaDu cells were incubated with 10 μM of DCFH-DA dye for 30 min then fluorescence was measured at 485/530 nm of […]. For FACS analysis, treated cells were incubated with 10 μM of DCFH-DA dye for 30 min, and the samples were analyzed within 1 h ([41]). The protocol for the analysis of MMP was similar to that of DCFH-DA except for Rhodamine 123 dye ([41]). The experiment was also carried out as per the method reported in Annexin-V-FITC apoptosis detection kit I (BD Pharmingen^TM, Catalog No. 556547). For the assay, 1 × 10^6 cells were grown in 6 well plates and treatment was given 24 h. The next day, cells were washed with cold PBS, and the pellet was resuspended in 100 μl (1X binding) buffer and left for 15 min followed by incubation with a dual fluorescent dye (5 μl FITC and 5 μl PI) for 10 min. The cell suspension was maintained upto 500 μl from the 1X binding buffer. The stained cells were analyzed by flow cytometer within 1 h ([42]).

FaDu [2] = experiment: SRB anti-proliferative assay; assay type: cell-based; details: Homo sapiens, 72 h
Experimental: (§2) The cell lines used for the present study were K562 (erythroid leukemia), COLO-205 (colon carcinoma), FaDu (hypopharyngeal carcinoma), MCF-7 (breast ER+ve adenocarcinoma), WRL-68 (hepatocellular carcinoma), A549 (lung carcinoma), and HEK-293 (embryonic kidney). These cell lines were purchased from the National Center for Cell Sciences (NCCS), Pune, India, except FaDu, which Dr. Sarkar endowed from CSIR-Central Drug Research Institute, Lucknow, Uttar Pradesh, India.
(§3) The SRB assay was carried out by following the method reported by Skehan et al. ([27]) with a slight modification ([28]). In 96 well plates, approximately ~2 ×10^3 cells per well were seeded. […] Approximately 20% of TCA was added in treated plates to precipitate cellular proteins, followed by washing cells with tap water and adding 10 μl SRB dye (0.4%) in each well of the plate. Then, the plate was washed with 1% acetic acid to remove the unbound dye. The bound dye was dissolved in 200 μl tris base (10 mM). The absorbance was finally measured at 515 nm using a spectrophotometer (Multiskan^TM Go SkanIt Software, version 4.0, Thermo Fisher Scientific, Waltham, MA, USA).

K562 = experiment: SRB anti-proliferative assay; assay type: cell-based; details: Homo sapiens, K562, 72 h
Experimental: as §2, §3

mTOR = experiment: ELISA kit assay in FaDu cells; assay type: cell-based, human
Experimental: (§4) The PI3K expression was determined using a kit procured from Bioassay Technology (Catalog No. E0896Hu). The protocol measured the AKT (Catalog No. 201-12-0893) and HDAC-6 (Catalog No. 201-12-2132) as indicated in the human-specific ELISA kit from Sun Red Company, China. mTOR (Catalog No. E-EL-H1655) was quantified by a kit purchased from ELab Sciences, USA. The VEGF (Catalog No. ab100663) and HIF-1α (Catalog No. ab171577) were estimated using a kit procured from Abcam, UK.

HIF-1α = experiment: ELISA kit assay in FaDu cells; assay type: cell-based, human; details: both tested concentrations
Experimental: as §4

PI3K = experiment: ELISA kit assay in FaDu cells; assay type: cell-based, human
Experimental: as §4

AKT = experiment: ELISA kit assay in FaDu cells; assay type: cell-based, human
Experimental: as §4

VEGF = experiment: ELISA kit assay in FaDu cells; assay type: cell-based, human; details: both tested concentrations
Experimental: as §4

HDAC-6 = experiment: ELISA kit assay in FaDu cells; assay type: cell-based, human
Experimental: as §4

[3] = tested on: Sarcoma-180 (S-180) tumor; details: for Tumor growth inhibition: days 1-9, evaluated day 12; for Tumor cell count Mean ± S.E / Tumor volume Mean ± S.E / Tumor weight Mean ± S.E: days 1-9, evaluated day 12, n = 5
Experimental: The S-180 cells were collected from Swiss albino mice harboring 8–10 days old cells from the peritoneal cavity. On day 0, the S-180 cells (1 × 10^7 cells/ml) were injected intra-peritoneal in non-inbred female Swiss albino mice (22–25 g, 8–10 weeks old) selected for the experiment. The next day (Day 1), the animals were randomized and divided into three treatment groups, one positive control group and one vehicle control group containing 5 animals in each group. […] The fourth group was given 5-fluorouracil; positive control at a dose of 20 mg/kg bw i.p. from day 1–9, and the fifth group (control) was administered normal saline (0.2 ml i.p.) for 9 days. On day 12, the animals were sacrificed, and the fluid was collected from each mouse's peritoneal cavity to evaluate tumor growth ([43]). The tumor growth inhibition was calculated using the following formula.
Tumor Growth Inhibition(%)=(Number of tumor cells in control group-Number of tumor cells in the test group)/Number of tumor cells in the control group×100

FaDu cells [4] = experiment: Mitochondrial membrane potential (Rhodamine 123); assay type: cell-based, human
Experimental: as §1

A549 = experiment: NRU anti-proliferative assay; assay type: cell-based; details: Homo sapiens
Experimental: as §2
(§5) The NRU assay was carried out by Babich and Borenfreund ([29]) method. Similar to the SRB assay, 5 μl NRU dye was added to the treated plate. Then, cells were washed with fixative solution after 3 h of incubation; further, the bound dye was solubilized in a dissolving solution. The absorbance was measured at 540 nm ([29]).

FaDu [5] = experiment: NRU anti-proliferative assay; assay type: cell-based, human
Experimental: as §2, §5

FaDu [6] = experiment: MTT anti-proliferative assay; assay type: cell-based; details: Homo sapiens
Experimental: as §2
(§6) The MTT assay was performed following the protocol as Mosmann ([30]) determined. […] The next day, 10 μl (500 μg/ml) of MTT dye was added to each well of the plate and further incubated for 4 h. After that, the formazan crystal was dissolved in 100 μl DMSO and absorbance was measured at 570 nm. The SRB, NRU, and MTT assays were calculated using percentage cytotoxicity concerning control ([30]).

FaDu cells [7] = experiment: ROS production (DCFH-DA); assay type: cell-based, human
Experimental: as §1

[8] = biological target: T1, Dihydrofolate reductase (DHFR) (Homo sapiens, UniProt P00374); experiment: DHFR activity assay in lysate of treated cells; details: cell-based test system, higher tested concentration 100 μM
T1 construct: endogenous in cells; host or cells: FaDu, K562, A549
T1 sequence (P00374 whole entry): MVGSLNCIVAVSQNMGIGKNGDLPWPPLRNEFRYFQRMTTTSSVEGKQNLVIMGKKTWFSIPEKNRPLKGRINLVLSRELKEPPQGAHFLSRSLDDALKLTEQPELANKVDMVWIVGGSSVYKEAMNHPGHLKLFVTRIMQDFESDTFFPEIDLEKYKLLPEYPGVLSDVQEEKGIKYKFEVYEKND
Experimental: (§7) Protein was estimated by nanodrop before being used for the enzyme assays.
In one set, ~10 μg of cell lysate was incubated with a reaction cocktail (2.3 mM DHFA, 0.11 mM β-NADPH in 50 mM potassium phosphate buffer, and pH 6.5), while another set was incubated in the reaction cocktail containing 0.1% bovine serum albumin (BSA) solution. The reaction mixture was mixed, and the kinetic study was performed at 340 nm for 5 min. The results were calculated using percentage inhibition concerning control ([31]). The ODC activity was determined by the modified method reported by Luqman et al. ([32]). Approximately 10 μg of cell lysate was added to the reaction cocktail (2.5 mM β-mercaptoethanol, 1.5 mM EDTA, 75 nM pyridoxal-phosphate, 3 mM L-ornithine hydrochloride in 150 mM potassium phosphate buffer, and pH 7.1). Approximately, 400 μl of 1 M perchloric acid was used to terminate the reaction, and NaOH (4N) was added to the supernatant. Further, 1-pentanol was added after centrifugation. Then, the upper organic phase was transferred to a microcentrifuge tube with 200 μl sodium borate, 200 μl TNBS, and 400 μl DMSO. Further, it was centrifuged, and 60 μl of supernatant was taken in plate, and absorbance was measured at 412 nm. The graph was plotted in the terms of percentage inhibition.

Cyclooxygenase-2 (COX-2) = Cyclooxygenase-2 (COX-2) (Homo sapiens, UniProt P35354); experiment: COX-2 activity assay in cell lysate; details: A549, 100 μM
Chain of Cyclooxygenase-2 (COX-2) (P35354 18-604): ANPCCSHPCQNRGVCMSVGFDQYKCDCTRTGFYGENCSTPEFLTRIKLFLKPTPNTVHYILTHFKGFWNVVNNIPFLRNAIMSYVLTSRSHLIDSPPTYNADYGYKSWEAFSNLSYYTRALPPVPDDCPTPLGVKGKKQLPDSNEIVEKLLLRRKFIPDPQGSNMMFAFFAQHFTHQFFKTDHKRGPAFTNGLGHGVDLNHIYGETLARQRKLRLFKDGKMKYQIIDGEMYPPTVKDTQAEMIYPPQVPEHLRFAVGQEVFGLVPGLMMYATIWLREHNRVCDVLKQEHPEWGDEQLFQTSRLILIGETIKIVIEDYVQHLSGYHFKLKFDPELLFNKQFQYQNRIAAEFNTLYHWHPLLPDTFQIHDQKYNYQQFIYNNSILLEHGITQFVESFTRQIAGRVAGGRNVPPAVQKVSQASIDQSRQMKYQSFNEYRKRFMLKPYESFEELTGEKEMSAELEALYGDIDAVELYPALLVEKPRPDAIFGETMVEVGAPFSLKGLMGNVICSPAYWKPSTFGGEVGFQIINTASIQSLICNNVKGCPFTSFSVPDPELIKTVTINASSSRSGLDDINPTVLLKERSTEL
Experimental: as §9

resistant species = details: against the resistant species; ref [8], [9]; cited from earlier work
Cathepsin D (CATD) = biological target: T2, Cathepsin D (CATD) (Homo sapiens, UniProt P07339); experiment: CATD activity assay in cell lysate; assay type: cell-based
T2 construct: endogenous in cells; host or cells: FaDu, K562, A549
T2 sequence (P07339 65-412): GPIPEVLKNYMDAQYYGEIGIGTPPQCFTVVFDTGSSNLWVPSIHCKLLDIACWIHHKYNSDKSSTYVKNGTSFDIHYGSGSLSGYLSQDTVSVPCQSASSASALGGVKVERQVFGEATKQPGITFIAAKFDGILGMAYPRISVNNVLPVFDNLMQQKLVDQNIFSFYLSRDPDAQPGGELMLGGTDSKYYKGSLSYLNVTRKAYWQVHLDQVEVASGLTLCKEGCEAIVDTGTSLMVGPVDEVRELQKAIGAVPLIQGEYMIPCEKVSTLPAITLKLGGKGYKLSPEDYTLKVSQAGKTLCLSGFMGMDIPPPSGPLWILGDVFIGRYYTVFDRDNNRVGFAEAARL
Experimental: as §7
(§8) The HYAL assay was performed by the standard reported protocol ([35]). Approximately 10 μg of cell lysate added in enzyme diluent buffer (77 mM sodium chloride, 20 mM sodium phosphate, 0.01% albumin, and pH 7.0 at 37°C). The reaction mixture was incubated for 45 min after adding HA (substrate). The mixture was distributed in three parts, each well of the plate containing 25 μl followed by the addition of 125 μl of diluent buffer (79 mM acetic acid, 24 mM sodium acetate, 0.1% albumin bovine, and pH 3.75). The absorbance was measured at 600 nm after 10 min incubation. The graph was shown in the terms of percentage inhibition. Hemoglobin was used as a substrate to determine CATD activity ([36]). Cell lysate (10 μg) was incubated with a reaction cocktail (2.5% of hemoglobin, deionised water, 400 mM citrate buffer, and pH 2.8) for 30 min at 37°C; the reaction was terminated by adding 5% TCA. Then, 200 μl of supernatant was taken in plate after centrifuge and absorbance were measured at 280 nm.

FaDu cells [9] = experiment: Annexin V-FITC/PI apoptosis assay; assay type: cell-based, human
Experimental: as §1

WRL-68 = experiment: Anti-proliferative activity (SRB, MTT, NRU assays); assay type: cell-based, human; details: WRL-68, higher tested concentration 100 μM
Experimental: as §2, §3, §5, §6

MCF-7 = experiment: Anti-proliferative activity (SRB, MTT, NRU assays); assay type: cell-based, human; details: MCF-7, higher tested concentration 100 μM
Experimental: as §2, §3, §5, §6

COLO-205 = experiment: Anti-proliferative activity (SRB, MTT, NRU assays); assay type: cell-based, human; details: COLO-205, higher tested concentration 100 μM
Experimental: as §2, §3, §5, §6

[10] = tested on: HEK-293 (normal) cell line; experiment: Anti-proliferative activity (SRB, MTT, NRU assays); assay type: cell-based, human
Experimental: as §2, §3, §5, §6

Hyaluronidase (HYAL) = experiment: HYAL activity assay in cell lysate; assay type: cell-based, human
Experimental: as §7, §8

[11] = biological target: T3, Ornithine decarboxylase (ODC) (Homo sapiens, UniProt P11926); experiment: ODC activity assay in lysate of treated cells; assay type: cell-based; details: A549, 100 μM
T3 construct: endogenous in cells; host or cells: A549
T3 sequence (P11926 whole entry): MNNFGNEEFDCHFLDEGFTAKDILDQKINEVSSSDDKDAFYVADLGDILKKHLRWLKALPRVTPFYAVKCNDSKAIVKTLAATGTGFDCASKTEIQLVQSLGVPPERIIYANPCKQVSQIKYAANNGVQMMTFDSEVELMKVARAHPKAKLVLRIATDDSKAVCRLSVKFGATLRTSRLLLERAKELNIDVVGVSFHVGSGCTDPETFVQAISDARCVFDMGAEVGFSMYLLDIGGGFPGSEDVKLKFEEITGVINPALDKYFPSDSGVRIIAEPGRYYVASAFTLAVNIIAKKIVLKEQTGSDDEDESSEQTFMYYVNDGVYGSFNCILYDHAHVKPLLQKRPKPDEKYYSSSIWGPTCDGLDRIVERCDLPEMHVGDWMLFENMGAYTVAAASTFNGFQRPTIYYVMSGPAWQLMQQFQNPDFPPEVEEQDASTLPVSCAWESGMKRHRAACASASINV

[12] = higher concentration (4 x IC50), 24 h

Chain of Lipoxygenase-5 (LOX-5) (P09917 whole entry): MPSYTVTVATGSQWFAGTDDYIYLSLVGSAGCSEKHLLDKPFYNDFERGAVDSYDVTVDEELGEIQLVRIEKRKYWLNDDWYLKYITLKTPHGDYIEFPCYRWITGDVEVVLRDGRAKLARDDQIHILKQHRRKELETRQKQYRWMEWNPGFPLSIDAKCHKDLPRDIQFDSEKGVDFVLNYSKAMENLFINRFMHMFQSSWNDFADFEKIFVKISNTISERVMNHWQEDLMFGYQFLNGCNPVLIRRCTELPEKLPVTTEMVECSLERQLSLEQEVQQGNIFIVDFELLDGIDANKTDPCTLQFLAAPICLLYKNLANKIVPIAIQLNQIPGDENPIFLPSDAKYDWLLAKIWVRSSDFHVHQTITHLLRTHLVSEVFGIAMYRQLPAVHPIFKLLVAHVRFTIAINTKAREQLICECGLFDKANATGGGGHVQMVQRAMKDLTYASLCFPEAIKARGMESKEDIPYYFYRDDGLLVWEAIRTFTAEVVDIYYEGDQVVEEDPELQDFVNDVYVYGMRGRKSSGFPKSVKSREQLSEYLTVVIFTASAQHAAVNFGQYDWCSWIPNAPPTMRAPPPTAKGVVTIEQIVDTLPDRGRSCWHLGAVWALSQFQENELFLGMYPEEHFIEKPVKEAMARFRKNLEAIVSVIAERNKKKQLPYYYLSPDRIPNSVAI

Compound: Cc1ccc(C(C)C)cc1O [carvacrol, 5-isopropyl-2-methyl phenol]
- suppression of LOX-5 activity (Lipoxygenase-5 (LOX-5); A549): < 50%
- suppression of LOX-5 activity (Lipoxygenase-5 (LOX-5); K562): < 50%
- cell cycle phase arrest (FaDu cells [1]): arrests the G2/M phase of FaDu cells in a dose-dependent manner
- sub-diploid population (FaDu cells [1]): raises the sub-diploid population number
- IC50 (FaDu [2]): 42 ± 11.4 µM
- IC50 (K562): 81.3 ± 11.8 µM
- effect on mTOR activity (mTOR): reduces the activity
- effect on HIF-1α activity (HIF-1α): the effect was non-significant
- effect on PI3K activity (PI3K): suppresses the activity of the PI3K/AKT at the higher tested concentration
- effect on AKT activity (AKT): suppresses the activity of the PI3K/AKT at the higher tested concentration
- effect on VEGF activity (VEGF): the effect was non-significant
- effect on HDAC-6 activity (HDAC-6): inhibits HDAC-6 activity in a dose-dependent manner
- Tumor growth inhibition ([3]; 25 mg/kg bw i.p.): 28.12%
- Tumor cell count Mean ± S.E ([3]; 25 mg/kg bw i.p.): 57.5 ± 8.72 1 × 10^7
- Tumor volume Mean ± S.E ([3]; 25 mg/kg bw i.p.): 3.5 ± 0.54 mL
- Tumor weight Mean ± S.E ([3]; 25 mg/kg bw i.p.): 3.36 ± 0.60 g
- Tumor growth inhibition ([3]; 50 mg/kg bw i.p.): 55.94%
- Tumor cell count Mean ± S.E ([3]; 50 mg/kg bw i.p.): 35.25 ± 4.68^** 1 × 10^7
- Tumor volume Mean ± S.E ([3]; 50 mg/kg bw i.p.): 1.57 ± 0.25 mL
- Tumor weight Mean ± S.E ([3]; 50 mg/kg bw i.p.): 1.39 ± 0.33 g
- Tumor growth inhibition ([3]; 75 mg/kg bw i.p.): 72.62%
- Tumor volume Mean ± S.E ([3]; 75 mg/kg bw i.p.): 1.16 ± 0.34 mL
- Tumor weight Mean ± S.E ([3]; 75 mg/kg bw i.p.): 1.10 ± 0.41 g
- effect on mice bw ([3]; 75, 50 and 25 mg/kg bw i.p.): no adverse effect
- mortality ([3]; during the experimental period): no mortality was noticed
- mitochondrial membrane potential (FaDu cells [4]): diminishes the membrane potential of the FaDu cell line at the tested concentrations
- IC50 (A549): 80.9 ± 8.28 µM
- growth inhibition (FaDu [5]): 35.32 ± 2.85%
- IC50 (FaDu [6]): 9.61 ± 0.05 µM
- ROS production (FaDu cells [7]): increases the ROS production in FaDu cell line in a dose-dependent manner; however, the effect was non-significant
- suppression of DHFR enzyme action [8]: up to 7%
- reduction of COX-2 activity (Cyclooxygenase-2 (COX-2)): 13.33%
- minimum inhibitory concentration (MIC) (resistant species): 0.015–0.03 % v/v
- suppression of CATD activity (Cathepsin D (CATD); A549): 2 ± 0.52%
- suppression of CATD activity (Cathepsin D (CATD); FaDu): 18.48 ± 0.33%
- suppression of CATD activity (Cathepsin D (CATD); K562): 5 ± 0.94%
- significance of effect on apoptosis and necrosis (FaDu cells [9]; Annexin V-FITC and PI): non-significant
- early apoptosis (A+/P-) (FaDu cells [9]; [12]): 0.1%
- late apoptosis (A+/P+) (FaDu cells [9]; [12]): 1.4%
- necrosis (A-/P+) (FaDu cells [9]; [12]): 3.4%
- reduction of proliferation (WRL-68): up to 24%
- reduction of proliferation (MCF-7): up to 24%
- reduction of proliferation (COLO-205): up to 24%
- cell growth inhibition [10]: approximately 25%
- reduction of HYAL enzyme action (Hyaluronidase (HYAL); A549, 100 μM): 39.15%
- IC50 (Hyaluronidase (HYAL); FaDu): 88.1 ± 10.4 µM
- IC50 (Hyaluronidase (HYAL); K562): 62 ± 8.4 µM
- reduction of ODC activity [11]: 35.68%
